One experiment has as its system Pmel CD8+ T cells. As to the kind of experiment: Re-stimulation with gp100 and FACS cytokine analysis. Type of experiment: cell-based, mouse. The settings on record: 0.5 mM GYY4137 3 days, re-stimulated with gp100. From the text:
The impact of H2S on T cell effector function was next determined. Pmel CD8+ T cells were activated and expanded with standard culture conditions or with the addition of the H2S donor and subsequently re-stimulated with gp100 cognate antigen (FIG. 14E). […] Given the importance of protein translation in maintaining a robust anti-tumor response and the repression of T cell translation that occurs in the TME (Riesenberg B. P., et al., 2022, bioRxiv, 2022.01.31.478547; Marchingo J. M., et al., 2022, Cell Mol Immunol., 19(3):303-315), it was determined if H2S influences protein translation.

A further experiment has as its system Pmel T cells. The following applies: H2S treated vs control.
The test system of experiment [1] is Prdx4-Golgi colocalization. The following applies: 50 mM H2O2 24 hrs. On the procedure: (§1) (FIG. 22A) Pmel T cells were activated for 3 days before treatment with vehicle or 50 mM H2O2 for 6 hrs. Prdx4-Golgi colocalization was assessed by PLA using mouse anti-Giantin and rabbit anti-Prdx4 antibodies. (FIG. 22B) Activated Pmel T cells treated with vehicle or 50 mM H2O2 for 6 hrs or 24 hrs with Monensin (1 mM). PLA assay was performed using anti-Giantin and anti-Prdx4 antibodies. (FIG. 22C) Experimental design using Prdx4-targeted siRNA to silence expression of Prdx4 in Pmel T cells. (FIG. 22D) GM130 expression assessed under control versus Monensin (1 μM) conditions in T cells treated with control-siRNA or Prdx4-siRNA. (FIG. 22E) GM130 expression assessed under control versus 50 mM H2O2 conditions in T cells treated with control-siRNA or Prdx4-siRNA+/−0.5 mM GYY4137. (FIG. 22F) Protein translation assessed in Pmel T cells activated+/−GYY4137 and treated with control-siRNA or Prdx4-siRNA. (FIG. 22G) GM130 expression in Pmel T cells treated with vehicle, GYY4137, or Catalase (10 μg/mL). (FIGS. 22H and 22I) Site directed mutagenesis performed to mutate cysteine-54 of the Prdx4 gene. Prdx4-targeted shRNA was used to knock down expression of Prdx4 in Jurkat T cells, followed by transfection with plasmid containing wildtype or mutated Prdx4. (FIG. 22I) GM130 expression assessed after treatment with 50 mM H2O2+/−GYY4137. […]

Another experiment has as its system Jurkat cells. The following applies: 50 mM H2O2 +/− GYY4137; wildtype vs C51A Prdx4. On the procedure:
as §1

The next experiment relates to human CD19 CAR-T cells. The following applies: 3 days IL2 +/− 0.5 mM GYY4137.
The next experiment deals with Prdx4 knockdown T cells. As to the kind of experiment: Prdx4 siRNA knockdown Pmel T cells under Golgi/oxidative stress. Type of experiment: cell-based, mouse. The procedure: (FIG. 22A) Pmel T cells were activated for 3 days before treatment with vehicle or 50 mM H2O2 for 6 hrs. Prdx4-Golgi colocalization was assessed by PLA using mouse anti-Giantin and rabbit anti-Prdx4 antibodies. (FIG. 22B) Activated Pmel T cells treated with vehicle or 50 mM H2O2 for 6 hrs or 24 hrs with Monensin (1 mM). PLA assay was performed using anti-Giantin and anti-Prdx4 antibodies. (FIG. 22C) Experimental design using Prdx4-targeted siRNA to silence expression of Prdx4 in Pmel T cells. (FIG. 22D) GM130 expression assessed under control versus Monensin (1 μM) conditions in T cells treated with control-siRNA or Prdx4-siRNA. (FIG. 22E) GM130 expression assessed under control versus 50 mM H2O2 conditions in T cells treated with control-siRNA or Prdx4-siRNA+/−0.5 mM GYY4137. (FIG. 22F) Protein translation assessed in Pmel T cells activated+/−GYY4137 and treated with control-siRNA or Prdx4-siRNA. (FIG. 22G) GM130 expression in Pmel T cells treated with vehicle, GYY4137, or Catalase (10 μg/mL). (FIGS. 22H and 22I) Site directed mutagenesis performed to mutate cysteine-54 of the Prdx4 gene. Prdx4-targeted shRNA was used to knock down expression of Prdx4 in Jurkat T cells, followed by transfection with plasmid containing wildtype or mutated Prdx4. (FIG. 22I) GM130 expression assessed after treatment with 50 mM H2O2+/−GYY4137. (FIG. 22J) B16-F10 tumors were injected s.c. into flanks of Pmel mice and grown to ˜100 mm2. TILs and T cells from tumor-draining lymph nodes were isolated via Ficoll spin followed by magnetic bead positive selection. FACS analysis of Prdx4 expression in TILs gated on PD1loLag3lo vs PD1hiLag3hi. (FIG. 22K) Lentiviral supernatant was generated using GFP-tagged control plasmid or GFP-tagged Prdx4-overexpression plasmid. Pmel T cells were transduced with control or Prdx4 lentivirus. Pmel T cells overexpressing Prdx4 and control T cells were treated with H2O2 (50 mM) followed by staining with anti-GM130.
Given the delicate redox balance necessary for the native disulfide bonds, it was postulated that a localized mechanism for the detection and elimination of ROS produced during the oxidative folding process may require Prdx4. Thus, it was hypothesized that ER and Golgi network stress mitigated by H2S is mediated through the Prdx4 localization and activity in these organelles. First, it was established if Prdx4 also localizes within the Golgi apparatus in T cells using a proximity ligation assay (PLA), a tool that allows in situ detection of endogenous proteins with high specificity and sensitivity, with antibodies directed against Giantin (a conserved Golgi membrane protein) and Prdx4. […] Next, using siRNA targeting Prdx4, expression of Prdx4 in CD8+ Pmel T cells was knocked down (FIG. 22C, FIGS. 23A and 23B). The cells were then subjected to conditions of oxidative and Golgi stress in the presence or absence of H2S treatment. […] Then, to determine whether the protective effect of H2S on Golgi stress is dependent on the presence of Prdx4, Golgi stress was induced in the presence or absence of H2S with control (siCtl) and Prdx4 knockdown (siPrdx4) T cells.

Entries after “also recorded” stand apart in the source; their conditions may differ.

Experimental for human CD19 CAR-T cells: Quantification of oxygen consumption rate (OCR), spare respiratory capacity (SRC), maximal respiration, and basal respiration (n=10 experimental replicates representative of 3 separate experiments). […] Shown is the quantification of mean oxygen consumption rate (OCR), spare respiratory capacity (SRC), maximal respiration, and basal respiration. Data shown represent the mean±SEM and were analyzed by two-sided Student's t-test or one-way ANOVA. ns, p-value >0.05; p-value *≤0.05; **≤0.01; ***≤0.001; ****≤0.0001.
Oxygen consumption rate (OCR) and extracellular acidification rate (ECAR) were determined using the Seahorse Xfe96 analyzer (Agilent Technologies, Santa Clara, CA). Briefly, T cells (0.5×10^6/well) were plated on a Cell-Tak coated Seahorse culture plate for 30 min. OCR, a measure of OXPHOS, was analyzed under basal condition, or in response to 1.0 μM oligomycin, 1.0 μM fluoro-carbonyl cyanide phenylhydrazone (FCCP) and 2 μM rotenone, plus 100 nM antimycin A. ECAR, a measure of glycolysis, was measured under basal conditions and in response to glucose (5.5 mM), Oligomycin (1.0 μM), and 2-deoxyglucose (2-DG) (100 mM). All reagents were purchased from Sigma-Aldrich, St. Louis, MO.

With `C1COCCN1.COc1ccc(P(=S)(S)N2CCOCC2)cc1` (centres unmarked) [GYY4137], in the experiment on Pmel CD8+ T cells, the “Granzyme B and CD107 expression” value is “increased levels of cytolytic molecule Granzyme B and CD107 expression”; the “secretion of effector cytokines TNF-α and IFN-γ” value was “enhanced secretion of effector cytokines TNF-α, and IFN-γ”. In the experiment on Pmel T cells, the “free thiols / abundance of ER proteins Prdx4, Ero1, MANF1, Rp17a” value is listed as “enhanced abundance or an increase in the extent of free thiols” and the “free thiols at cysteine 54 in Prdx4” value is “increase in free thiols at cysteine 54 in Prdx4”. Also, the “loss of Prdx4 localization within the Golgi under prolonged oxidative stress” value in experiment [1] is “loss of colocalization was mitigated”. In addition, the “protective effect on H2O2-induced Golgi stress (GM130)” value in the experiment on Jurkat cells is listed as “only observed in Jurkat cells expressing wildtype Prdx4”. Moreover, in the experiment on human CD19 CAR-T cells, the SRC entry is listed as “significant increase” and the maximal respiration result was “significant increase”. Also, the “GM130 expression under Golgi stress, control (siCtl) T cells” value in the experiment on Prdx4 knockdown T cells (50 mM H2O2 +/− 0.5 mM GYY4137) is “prevented the decrease in GM130 expression”. The “GM130 expression under Golgi stress, Prdx4 knockdown (siPrdx4) T cells” value in the experiment with Prdx4 knockdown T cells (50 mM H2O2 +/− 0.5 mM GYY4137, listed as H2S) is given as “protective effect was absent; also recorded: absent when Prdx4 was knocked down”. For the same compound, the “increase in protein translation, Prdx4 knockdown T cells” value with Prdx4 knockdown T cells (+/− GYY4137) was “not observed”.

The record behind these values is patent US20250170239A1, “CELLULAR REPROGRAMMING BY TARGETING THE GOLGI APPARATUS” (MUSC Foundation for Research Development, priority 2023, published 2025).
